Measurements from patent publication US20240374607A1, “MEDICAMENT FOR PREVENTING AND/OR TREATING DRY EYE” (Santen Pharmaceutical Co., Ltd., priority 2021, published 2024).

How the values were obtained:
[1] = tested on: normal male cynomolgus monkeys; experiment: Intraocular pressure test, twice daily repeated instillation, Test 5; assay type: in vivo, cynomolgus monkey; conditions: 20 μL/eye twice daily, Day 1, 7 and 14, FIG. 4
Protocol: Specifically, one drop of 0.4% oxybuprocaine hydrochloride ophthalmic solution (trade name: Benoxil (registered trademark) ophthalmic solution 0.4%) was instilled to the right eye so as to provide surface anesthesia, and then the intraocular pressure was measured three times with Mentor tonometer (applanation), followed by calculation of the average. (N=6 eyes)

[2] = tested on: normal male cynomolgus monkeys; experiment: Tear film break-up time (TBUT) after single ocular instillation, Tests 1 and 2; conditions: for Extension of TBUT: 1% (w/v) ophthalmic solution, single ocular instillation, FIG. 2
Protocol: TBUT measurement tests were conducted for 10 normal male cynomolgus monkeys by partial crossover design of 5 monkeys per group. The test animals were given general anesthesia by intramuscular injection with ketamine hydrochloride (Ketalar for intramuscular injection 500 mg (registered trademark), Daiichi Sankyo Company, Limited.), and then were let their eyes closed. Then, TBUT was measured before and at 15, 30, and 60 minutes after ocular instillation of a vehicle or each ophthalmic solution (20 μL/eye) to the right eye. Specifically, 1% fluorescein solution (2 μL/eye) was instilled, and the time right after opening of the eyelids until breaking of the fluorescein layer (tear film) on the cornea was measured three times under a slit lamp, followed by calculation of the average. (N=5 eyes)
TBUT was measured in a similar manner to the method of Test 1. (N=4 or 5 eyes)

[3] = tested on: dry-eye model rat whose exorbital lacrimal gland is excised; experiment: Tear film break-up time in dry-eye model rat, Test 6; assay type: in vivo; conditions: concentration of 0.00001% or more, 5 μL/eye, 0.5 and 2 hours after ocular instillation; FIG. 5
Description: A male SD rat was given general anesthesia, the skin on each […] cheek was incised under the anesthetized state, and then the exorbital lacrimal gland was excised to prepare a dry-eye model rat whose exorbital lacrimal gland is excised.
Untreated normal rats were assigned to an untreated group, and dry-eye model rats whose exorbital lacrimal gland is excised were assigned to a vehicle group and each ophthalmic solution group, each group consisting of 6 rats. For each group, TBUT measurement tests were conducted.

[4] = tested on: dry-eye model SD rat with exorbital lacrimal gland removed; experiment: Quantity of tears by Schirmer strip in dry-eye model, Tests 3 and 4; assay type: in vivo; conditions: for Incremental difference in Schirmer's test at 0.5 hours after ocular instillation / Incremental difference in Schirmer's test at 8 hours after ocular instillation: 5 μL/eye, difference from vehicle-instilled group
Protocol: A somnopentyl injection five-fold diluted with physiological saline was intraperitoneally administered to a normal male SD (Sprague-Dawley) rat by 2.5 mL/kg, and the rat was given general anesthesia, followed by keeping the anesthetized state by inhalation of about 1 to 3% isoflurane. Then, the skin on each check was incised to remove the exorbital lacrimal gland, followed by suturation with a Michel suture clamp. In this test, an individual wherein reduction of tears was confirmed after 13 weeks from the removal of exorbital lacrimal gland was included as the experimental animal.
Half an hour after treatment of general anesthesia, Schirmer strip (1 mm×17 mm) was inserted to conjunctival sac of the lower eyelid of a rat, and then after 1 minute of the insertion, the wet part of the Schirmer strip was measured in increments of 0.5 mm. (N=14 or 16 eyes)
The quantity of tears was measured in a similar manner to Test 3. (N=10 eyes)
The following Tables 1 and 2 show incremental differences (mm/min) in Schirmer's test between the vehicle-instilled group and the ophthalmic-solution-instilled groups at 0.5 and 8 hours, respectively, after ocular instillation according to the results of Test 3 and Test 4. The symbol “-” in Tables 1 and 2 means not-performed.

SMILES	Effect on intraocular pressure ([1]; 0.01% ophthalmic solution)	Effect on intraocular pressure ([1]; 0.1% ophthalmic solution)	TBUT-extending effect ([2]; 0.0001, 0.001, 0.01% (w/v), single ocular instillation 20 μL/eye, 15, 30, 60 minutes, FIG. 1)	TBUT-extending effect [3]	Lacrimal secretion at 8 hours after ocular instillation ([4]; 0.0001 to 0.01% instilled groups, 8 hours, FIG. 3)	Tear volumes at 16 hours after ocular instillation ([4]; 0.001 and 0.01% instilled groups, 16 hours, FIG. 3)	Lacrimal secretion ([4]; olodaterol-instilled groups 0.00001 to 0.01%, FIG. 3)	Extension of TBUT [2]	Incremental difference in Schirmer's test at 0.5 hours after ocular instillation ([4]; 0.001% ophthalmic solution) [mm/min]	Incremental difference in Schirmer's test at 8 hours after ocular instillation ([4]; 0.001% ophthalmic solution, 8 hours) [mm/min]	Incremental difference in Schirmer's test at 0.5 hours after ocular instillation ([4]; 0.01% ophthalmic solution) [mm/min]	Incremental difference in Schirmer's test at 8 hours after ocular instillation ([4]; 0.01% ophthalmic solution, 8 hours) [mm/min]	Incremental difference in Schirmer's test at 0.5 hours after ocular instillation ([4]; 0.1% ophthalmic solution) [mm/min]	Incremental difference in Schirmer's test at 8 hours after ocular instillation ([4]; 0.1% ophthalmic solution, 8 hours) [mm/min]	Incremental difference in Schirmer's test at 0.5 hours after ocular instillation ([4]; 1% ophthalmic solution) [mm/min]	Incremental difference in Schirmer's test at 8 hours after ocular instillation ([4]; 1% ophthalmic solution, 8 hours) [mm/min]
COc1ccc(CC(C)(C)NC[C@H](O)c2cc(O)cc3c2OCC(=O)N3)cc1 [olodaterol, 6-hydroxy-8-((1R)-1-hydroxy-2-{[2-(4-methoxyphenyl)-1,1-dimethylethyl]amino}&shy;ethyl)-2H-1,4-benzoxazin-3-(4H)-one]	did not show increase and/or decrease the intraocular pressure	did not show increase and/or decrease the intraocular pressure	confirmed in a concentration-dependent manner	TBUT-extending effect was confirmed	highly enhanced	increase of tear volumes was observed	lacrimal secretion was enhanced									
CC(C)(C)NCC(O)c1cc(Cl)c(N)c(Cl)c1 (centres unmarked) [clenbuterol]								not confirmed								
CC(Cc1ccc(O)cc1)NCC(O)c1cc(O)cc(O)c1 (centres unmarked) [fenoterol]								not confirmed	1.8	0.0	4.8	0.2	6.1	0.9	3.6	1.1
